In ChEMBL document CHEMBL1123299, “New antiarrhythmic agents. 2,2,5,5-Tetramethyl-3-pyrroline-3-carboxamides and 2,2,5,5-tetramethylpyrrolidine-3-carboxamindes” (J Med Chem, 1986):

Columns and labels:
[1] = test system: Rattus norvegicus; assay: Incidence of arrhythmias in rats after a intravenal administration at 4 mg/kg, expressed as no. of positive cases out of no. of tested cases (10); type: functional
[2] = Acute toxicity determined after intravenal administration in mice; type: organism-based; settings: mouse, in vivo, iv
[3] = species: Rattus norvegicus; assay: Relative potency with reference to quinidine; type: functional

SMILES	No. of positive cases [1]	LD50 [2] [mg/kg]	Relative potency [3]
CC1(C)C=C(C(=O)NCCNC(=O)c2ccc3c(c2)OCO3)C(C)(C)N1	2	95	–
CCc1nc2ccccc2c(=O)n1CCNC(=O)C1=CC(C)(C)NC1(C)C	10	–	1.1
CC1(C)C=C(C(=O)NCCCNC(=O)C2CCCCC2C(=O)O)C(C)(C)N1 (stereo not given)	0	753	–
CC1(C)C=C(C(=O)NCCCNCc2ccsc2)C(C)(C)N1	9	–	2.2
CC1(C)C=C(C(=O)NCCCNCc2ccco2)C(C)(C)N1	0	34	–
COc1ccc(CNC(=O)C2=CC(C)(C)NC2(C)C)cc1	0	66	–
Cc1nc2ccccc2c(=O)n1CC(O)CNC(=O)C1=CC(C)(C)NC1(C)C (stereo not given)	4	73	–
CC1(C)C=C(C(=O)NCCCNC(=O)C(C)(C)Oc2ccc(Cl)cc2)C(C)(C)N1	0	46	–
CC1(C)C=C(C(=O)NCc2ccc(Cl)cc2)C(C)(C)N1	0	49	–
CN(Cc1ccccc1)C(=O)C1=CC(C)(C)NC1(C)C	1	51	–
CCc1nc2ccccc2c(=O)n1CCCNC(=O)C1CC(C)(C)NC1(C)C (stereo not given)	10	–	4.4
CC(=O)Nc1ccc(CNCCCNC(=O)C2=CC(C)(C)NC2(C)C)cc1	2	23	–
Cc1cc(Cl)ccc1OCC(=O)NCCNC(=O)C1=CC(C)(C)NC1(C)C	2	36	–
CC1(C)C=C(C(=O)NCCCCNCc2cccs2)C(C)(C)N1	10	–	2.5
CC1(C)C=C(C(=O)NC(C(N)=O)c2ccccc2)C(C)(C)N1 (stereo not given)	2	75	–
CC1(C)C=C(C(=O)NCCCNC(=O)COc2ccc(Cl)cc2Cl)C(C)(C)N1	5	20	–
Cc1nc2ccccc2c(=O)n1CCNC(=O)C1=CC(C)(C)NC1(C)C	4	–	–
CC1(C)C=C(C(=O)NCc2ccccc2)C(C)(C)N1	3	34	–
CC1(C)C=C(C(=O)NCCCNCc2ccccn2)C(C)(C)N1	0	102	–
CC1(C)C=C(C(=O)NCCCNC(=O)Cc2ccccc2)C(C)(C)N1	6	54	–

SMILES	No. of positive cases [1]	LD50 [2] [mg/kg]	Relative potency [3]
CC1(C)C=C(C(=O)NCCCNC(=O)c2ccccc2C(=O)O)C(C)(C)N1	0	–	–
CC1(C)C=C(C(=O)NCCNC(=O)COc2ccc(Cl)cc2Cl)C(C)(C)N1	4	37	–
Cc1nc2ccccc2c(=O)n1CCCNC(=O)C1CC(C)(C)NC1(C)C (stereo not given)	3	53	–
CC1(C)C=C(C(=O)NCCNC(=O)Cc2cccs2)C(C)(C)N1	2	86	–
COc1ccc(CCNC(=O)C2=CC(C)(C)NC2(C)C)cc1OC	0	123	–
COc1cc(CNCCNC(=O)C2=CC(C)(C)NC2(C)C)cc(OC)c1OC	2	56	–
CC1(C)C=C(C(=O)NCCCCNC(=O)c2cccs2)C(C)(C)N1	6	37	–
CC1(C)C=C(C(=O)NCCNC(=O)C2CCCCC2C(=O)O)C(C)(C)N1 (stereo not given)	0	1130	–
CC1(C)C=C(C(=O)NCCCNCc2ccncc2)C(C)(C)N1	0	94	–
COc1cc(C(=O)NCCCNC(=O)C2=CC(C)(C)NC2(C)C)cc(OC)c1OC	5	–	0.97
CC1(C)C=C(C(=O)NCc2ccncc2)C(C)(C)N1	0	132	–
CC1(C)C=C(C(=O)NCCNC(=O)C(C)(C)Oc2ccc(Cl)cc2)C(C)(C)N1	0	47	–
CC1(C)CC(C(=O)NCCCNCc2ccc(C(F)(F)F)cc2)C(C)(C)N1 (stereo not given)	9	–	4.1
C=CCc1ccc(OCC(=O)NCCCNC(=O)C2CC(C)(C)NC2(C)C)c(OC)c1 (stereo not given)	0	38	–
CC1(C)C=C(C(=O)NCCNC(=O)C2CC=CCC2C(=O)O)C(C)(C)N1 (stereo not given)	0	1510	–
CC1(C)C=C(C(=O)NCCNC(=O)C(O)c2ccccc2)C(C)(C)N1 (stereo not given)	0	85	–
CC1(C)C=C(C(=O)NCCCNCc2cccc(O)c2)C(C)(C)N1	4	17	–
CC1(C)C=C(C(=O)NCCN2C(=O)C3CC=CCC3C2=O)C(C)(C)N1 (stereo not given)	0	182	–
CC(=O)Nc1ccc(CNCCNC(=O)C2=CC(C)(C)NC2(C)C)cc1	2	25	–
COc1ccc(CNCCNC(=O)C2=CC(C)(C)NC2(C)C)cc1OC	2	61	–

SMILES	No. of positive cases [1]	LD50 [2] [mg/kg]	Relative potency [3]
CC1(C)C=C(C(=O)NCCCN2C(=O)C3CCCCC3C2=O)C(C)(C)N1 (stereo not given)	0	106	–
CC1(C)C=C(C(=O)NCCN2C(=O)C3CCCCC3C2=O)C(C)(C)N1 (stereo not given)	0	128	–
CC1(C)C=C(C(=O)NCC(C)(C)NCc2cccs2)C(C)(C)N1	1	49	–
CC1(C)C=C(C(=O)NCCCNC(=O)c2cccs2)C(C)(C)N1	4	48	–
CC(NCCNC(=O)C1=CC(C)(C)NC1(C)C)c1cccs1 (stereo not given)	2	53	–
Cc1cc(Cl)ccc1OCC(=O)NCCCNC(=O)C1=CC(C)(C)NC1(C)C	3	30	–
CC1(C)C=C(C(=O)NCCCNC(=O)C(O)c2ccccc2)C(C)(C)N1 (stereo not given)	1	52	–
Cc1cccc(C)c1NC(=O)C(C)NCCNC(=O)C1=CC(C)(C)NC1(C)C (stereo not given)	4	39	–
CC1(C)C=C(C(=O)NCCCNC(=O)C2CC=CCC2C(=O)O)C(C)(C)N1 (stereo not given)	0	344	–
CC1(C)C=C(C(=O)NC(c2ccccc2)c2ccccc2)C(C)(C)N1	5	63	–
CC1(C)C=C(C(=O)NCCCNC(=O)c2ccc3c(c2)OCO3)C(C)(C)N1	4	76	–
CC1(C)C=C(C(=O)NCCCNCc2ccc[nH]2)C(C)(C)N1	4	20	–
CC1(C)C=C(C(=O)NCCNC(=O)c2ccccc2C(=O)O)C(C)(C)N1	0	357	–
CC1(C)C=C(C(=O)NCCNC(=O)c2cccs2)C(C)(C)N1	3	93	–
CC1(C)C=C(C(=O)NCCCN2C(=O)C3CC=CCC3C2=O)C(C)(C)N1 (stereo not given)	2	–	–
CC(CNC(=O)C1=CC(C)(C)NC1(C)C)NCc1cccs1 (stereo not given)	4	68	–
CC1(C)C=C(C(=O)NCCNC(=O)c2ccccn2)C(C)(C)N1	2	88	–
CC1(C)C=C(C(=O)NCC(O)CNC(=O)C(C)(C)Oc2ccc(Cl)cc2)C(C)(C)N1 (stereo not given)	0	69	–
CC1(C)C=C(C(=O)NCCNCc2cccs2)C(C)(C)N1	3	123	–
